Assay results reported in patent US4882316A, “Pyrimidine derivatives” (Hoffmann-La Roche Inc., priority 1986, dated 1989).

target: herpes simplex virus type 2 (HSV-2) thymidine kinase (Human herpesvirus 2, UniProt P89446); assay: inhibition of herpes simplex virus type 2 (HSV-2) thymidine kinase in vitro (3H-thymidine phosphorylation); type: biochemical; details: thymidine kinase extract; 50 mM Tris-HCl, pH 8; 5 mM MgCl2; 5 mM ATP; 0.3 μM 3H-thymidine; 37° C., 30 minutes; read-out: IC50 (concentration of the test compound which inhibits enzyme activity by 50%)
Procedure: The assay mixture contains 50 mM Tris-HCl, pH 8, 5 mM magnesium chloride, 5 mM ATP, 0.3 μM ^3 H-thymidine (50 Ci/mmol), suitably diluted thymidine kinase extract and various concentrations of the test compounds in a total volume of 100 μl. Assays are incubated at 37° C. for 30 minutes and the reaction is terminated by immersion in a boiling water bath for 2 minutes. 85 μl aliquots from each assay are then dried on cellulose paper discs and the unphosphorylated ^3 H-thymidine is removed by washing in 4 mM ammonium formate. The radioactivity remaining bound to the discs is then measured by scintillation spectrophotometry. The degree of inhibition at each concentration of the test compound is expressed as a percentage of a control reaction. The IC50 value, namely the concentration of the test compound which inhibits enzyme activity by 50%, is then calculated. The results obtained with representative compounds of formula I are compiled in the following Table: […]

herpes simplex virus type 2 (HSV-2) thymidine kinase, sequence (P89446 whole entry): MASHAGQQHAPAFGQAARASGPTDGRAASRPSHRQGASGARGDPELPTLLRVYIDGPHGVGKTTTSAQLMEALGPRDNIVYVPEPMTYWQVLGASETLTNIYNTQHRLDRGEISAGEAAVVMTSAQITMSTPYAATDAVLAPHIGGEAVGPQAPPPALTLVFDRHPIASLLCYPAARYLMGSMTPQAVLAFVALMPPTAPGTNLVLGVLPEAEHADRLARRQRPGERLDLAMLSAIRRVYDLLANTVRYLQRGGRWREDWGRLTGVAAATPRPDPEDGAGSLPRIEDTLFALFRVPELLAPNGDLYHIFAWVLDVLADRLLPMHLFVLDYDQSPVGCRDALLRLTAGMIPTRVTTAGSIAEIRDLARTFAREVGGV

SMILES	IC50 [nM]
CCc1cn([C@H]2C[C@H](O)[C@@H](CCC(O)Cc3c(Cl)cccc3Cl)O2)c(=O)[nH]c1=O (mixture of isomers) [Example 5, 5'-[3-(2,6-dichlorophenyl)-2(RS)-hydroxypropyl]-2',5'-dideoxy-5-ethyluridine]	16
CCc1cn([C@H]2C[C@H](O)[C@@H](CCCCc3ccccc3)O2)c(=O)[nH]c1=O [Example 7, 2',5'-dideoxy-5-ethyl-5'-(3-phenylpropyl)uridine]	170
CCc1cn([C@H]2C[C@H](O)[C@@H](CSCc3c(Cl)cccc3Cl)O2)c(=O)[nH]c1=O [Example 14c, 5'-(2,6-dichlorobenzylthio)-2',5'-dideoxy-5-ethyluridine]	72
CCc1cn([C@H]2C[C@H](O)[C@@H](CCC(=O)Cc3c(Cl)cccc3Cl)O2)c(=O)[nH]c1=O [Example 3, 5'-[3-(2,6-dichlorophenyl)-2-oxopropyl]-2',5'-dideoxy-5-ethyluridine]	2.4
CCc1cn([C@H]2C[C@H](O)[C@@H](CS(=O)(=O)Cc3ccccc3)O2)c(=O)[nH]c1=O [Example 9, 5'-benzylsulphonyl-2',5'-dideoxy-5-ethyluridine]	600
